Experiments:
[1] = target: Polyunsaturated fatty acid lipoxygenase ALOX15 (Oryctolagus cuniculus) (UniProt P12530); experiment: 15LO Eurofins-Panlabs selectivity data (BI); details: Compound concentration 10.0 uM
[2] = target: Carbonic anhydrase 6 (Homo sapiens) (UniProt P23280); experiment: CANHYDRASE Eurofins-Panlabs selectivity data (BI); details: Compound concentration 10.0 uM
[3] = target: Endothelin-1 receptor (Homo sapiens) (UniProt P25101); experiment: ETA/HU Eurofins-Panlabs selectivity data (BI); details: Compound concentration 10.0 uM
[4] = target: Muscarinic acetylcholine receptor (Rattus norvegicus) (UniProt P08482+P08483+P08485+P08911+P10980); experiment: MUSCARIN/NS Eurofins-Panlabs selectivity data (BI); assay type: protein assay; details: Compound concentration 10.0 uM
[5] = test system: Tyrosine-protein kinase ABL1 (Homo sapiens), P00519 [H396P]; details: Compound concentration 1000.0 nM
[6] = target: Activin receptor type-1-like (Homo sapiens) (UniProt P37023); details: Compound concentration 1000.0 nM
[7] = target: Aurora kinase B (Homo sapiens) (UniProt Q96GD4); details: Compound concentration 1000.0 nM
[8] = target: Bone morphogenetic protein receptor type-1A (Homo sapiens) (UniProt P36894); details: Compound concentration 1000.0 nM
[9] = test system: Serine/threonine-protein kinase B-raf (Homo sapiens), P15056 [V600E]; details: Compound concentration 1000.0 nM
[10] = target: Tyrosine-protein kinase BTK (Homo sapiens) (UniProt Q06187); details: Compound concentration 1000.0 nM
[11] = target: Calcium/calmodulin-dependent protein kinase kinase 2 (Homo sapiens) (UniProt Q96RR4); details: Compound concentration 1000.0 nM
[12] = target: Cyclin-dependent kinase 13 (Homo sapiens) (UniProt Q14004); details: Compound concentration 1000.0 nM
[13] = target: Cyclin-dependent kinase 9 (Homo sapiens) (UniProt P50750); details: Compound concentration 1000.0 nM
[14] = target: Serine/threonine-protein kinase Chk1 (Homo sapiens) (UniProt O14757); details: Compound concentration 1000.0 nM
[15] = target: Dual specificity protein kinase CLK4 (Homo sapiens) (UniProt Q9HAZ1); details: Compound concentration 1000.0 nM
[16] = target: Casein kinase I isoform gamma-2 (Homo sapiens) (UniProt P78368); details: Compound concentration 1000.0 nM
[17] = target: Casein kinase II subunit alpha' (Homo sapiens) (UniProt P19784); details: Compound concentration 1000.0 nM
[18] = target: Serine/threonine-protein kinase DCLK3 (Homo sapiens) (UniProt Q9C098); details: Compound concentration 1000.0 nM
[19] = target: Epithelial discoidin domain-containing receptor 1 (Homo sapiens) (UniProt Q08345); details: Compound concentration 1000.0 nM
[20] = target: Serine/threonine-protein kinase MRCK gamma (Homo sapiens) (UniProt Q6DT37); details: Compound concentration 1000.0 nM
[21] = target: Dual specificity tyrosine-phosphorylation-regulated kinase 1B (Homo sapiens) (UniProt Q9Y463); details: Compound concentration 1000.0 nM
[22] = target: Ephrin type-A receptor 4 (Homo sapiens) (UniProt P54764); details: Compound concentration 1000.0 nM
[23] = target: Ephrin type-A receptor 8 (Homo sapiens) (UniProt P29322); details: Compound concentration 1000.0 nM
[24] = target: Receptor tyrosine-protein kinase erbB-4 (Homo sapiens) (UniProt Q15303); details: Compound concentration 1000.0 nM
[25] = target: Rhodopsin kinase GRK1 (Homo sapiens) (UniProt Q15835); details: Compound concentration 1000.0 nM
[26] = target: Hormonally up-regulated neu tumor-associated kinase (Homo sapiens) (UniProt P57058); details: Compound concentration 1000.0 nM
[27] = target: Tyrosine-protein kinase Lck (Homo sapiens) (UniProt P06239); details: Compound concentration 1000.0 nM
[28] = target: Microtubule-associated serine/threonine-protein kinase 1 (Homo sapiens) (UniProt Q9Y2H9); details: Compound concentration 1000.0 nM
[29] = target: Dual specificity mitogen-activated protein kinase kinase 4 (Homo sapiens) (UniProt P45985); details: Compound concentration 1000.0 nM
[30] = target: Serine/threonine-protein kinase PAK 4 (Homo sapiens) (UniProt O96013); details: Compound concentration 1000.0 nM
[31] = target: Cyclin-dependent kinase 2 homolog (Plasmodium falciparum (isolate 3D7)) (UniProt P61075); details: Compound concentration 1000.0 nM
[32] = test system: Phosphatidylinositol 4,5-bisphosphate 3-kinase catalytic subunit alpha isoform (Homo sapiens), P42336 [E542K]; details: Compound concentration 1000.0 nM
[33] = test system: Proto-oncogene tyrosine-protein kinase receptor Ret (Homo sapiens), P07949 [M918T]; details: Compound concentration 1000.0 nM
[34] = target: Rho-associated protein kinase 1 (Homo sapiens) (UniProt Q13464); details: Compound concentration 1000.0 nM
[35] = target: Serine/threonine-protein kinase 16 (Homo sapiens) (UniProt O75716); details: Compound concentration 1000.0 nM
[36] = target: Angiopoietin-1 receptor (Homo sapiens) (UniProt Q02763); details: Compound concentration 1000.0 nM
[37] = target: Serine/threonine-protein kinase tousled-like 2 (Homo sapiens) (UniProt Q86UE8); details: Compound concentration 1000.0 nM
[38] = target: BDNF/NT-3 growth factors receptor (Homo sapiens) (UniProt Q16620); details: Compound concentration 1000.0 nM
[39] = target: Wee1-like protein kinase 2 (Homo sapiens) (UniProt P0C1S8); details: Compound concentration 1000.0 nM
[40] = target: Serine/threonine-protein kinase WNK2 (Homo sapiens) (UniProt Q9Y3S1); details: Compound concentration 1000.0 nM
[41] = target: Serine/threonine-protein kinase 32B (Homo sapiens) (UniProt Q9NY57); details: Compound concentration 1000.0 nM
[42] = target: 5-hydroxytryptamine receptor 2A (Homo sapiens) (UniProt P28223); details: Compound concentration 10.0 uM
[43] = target: Sodium-dependent dopamine transporter (Homo sapiens, UniProt Q01959); details: Compound concentration 10.0 uM
[44] = target: Alpha-2B adrenergic receptor (Homo sapiens) (UniProt P18089); details: Compound concentration 10.0 uM
[45] = target: Muscarinic acetylcholine receptor M3 (Homo sapiens) (UniProt P20309); details: Compound concentration 10.0 uM
Chain of Muscarinic acetylcholine receptor M3 (Homo sapiens) (P20309 whole entry, looked up): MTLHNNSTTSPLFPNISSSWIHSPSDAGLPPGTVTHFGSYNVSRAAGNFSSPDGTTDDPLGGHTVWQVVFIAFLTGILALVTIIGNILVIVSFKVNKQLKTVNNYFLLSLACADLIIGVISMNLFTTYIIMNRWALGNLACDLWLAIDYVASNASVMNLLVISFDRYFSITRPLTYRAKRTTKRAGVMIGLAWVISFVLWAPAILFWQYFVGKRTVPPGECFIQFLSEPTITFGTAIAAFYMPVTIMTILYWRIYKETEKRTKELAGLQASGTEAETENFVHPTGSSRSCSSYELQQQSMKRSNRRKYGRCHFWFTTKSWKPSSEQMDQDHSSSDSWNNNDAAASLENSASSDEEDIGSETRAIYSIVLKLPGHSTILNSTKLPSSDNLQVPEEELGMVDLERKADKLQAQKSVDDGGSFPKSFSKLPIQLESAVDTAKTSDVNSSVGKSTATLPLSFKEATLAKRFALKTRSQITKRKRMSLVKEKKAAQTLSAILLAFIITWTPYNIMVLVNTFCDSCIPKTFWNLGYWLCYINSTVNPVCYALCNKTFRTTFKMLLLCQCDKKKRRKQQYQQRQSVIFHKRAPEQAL

Chain of Activin receptor type-1-like (Homo sapiens) (P37023 whole entry): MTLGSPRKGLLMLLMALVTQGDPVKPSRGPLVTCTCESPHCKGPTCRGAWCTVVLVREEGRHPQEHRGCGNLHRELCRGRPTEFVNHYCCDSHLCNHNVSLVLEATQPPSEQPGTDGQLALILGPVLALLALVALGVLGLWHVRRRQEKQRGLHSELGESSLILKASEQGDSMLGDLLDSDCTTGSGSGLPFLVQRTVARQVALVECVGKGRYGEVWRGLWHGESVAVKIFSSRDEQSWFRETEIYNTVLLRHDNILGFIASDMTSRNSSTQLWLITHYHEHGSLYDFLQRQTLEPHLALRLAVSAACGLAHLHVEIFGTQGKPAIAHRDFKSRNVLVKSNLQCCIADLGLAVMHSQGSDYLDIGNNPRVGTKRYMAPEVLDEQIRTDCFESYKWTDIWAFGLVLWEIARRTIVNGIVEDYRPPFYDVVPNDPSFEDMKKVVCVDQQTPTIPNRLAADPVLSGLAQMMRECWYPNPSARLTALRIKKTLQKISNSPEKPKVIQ
Chain of Dual specificity protein kinase CLK4 (Homo sapiens) (Q9HAZ1 whole entry, looked up, canonical isoform): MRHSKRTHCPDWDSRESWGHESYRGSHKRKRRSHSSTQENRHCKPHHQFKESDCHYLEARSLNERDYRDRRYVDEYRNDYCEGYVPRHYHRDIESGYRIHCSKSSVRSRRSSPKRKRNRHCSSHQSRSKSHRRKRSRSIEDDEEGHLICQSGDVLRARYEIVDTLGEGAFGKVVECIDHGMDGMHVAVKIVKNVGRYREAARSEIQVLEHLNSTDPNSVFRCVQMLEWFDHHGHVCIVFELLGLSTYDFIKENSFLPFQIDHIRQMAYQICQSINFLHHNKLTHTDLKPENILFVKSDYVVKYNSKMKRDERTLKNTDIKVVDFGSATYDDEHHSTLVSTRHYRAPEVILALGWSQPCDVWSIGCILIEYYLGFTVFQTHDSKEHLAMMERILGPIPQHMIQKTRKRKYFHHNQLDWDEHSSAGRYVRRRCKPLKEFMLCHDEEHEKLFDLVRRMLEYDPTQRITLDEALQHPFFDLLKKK
Chain of Serine/threonine-protein kinase WNK2 (Homo sapiens) (Q9Y3S1 whole entry): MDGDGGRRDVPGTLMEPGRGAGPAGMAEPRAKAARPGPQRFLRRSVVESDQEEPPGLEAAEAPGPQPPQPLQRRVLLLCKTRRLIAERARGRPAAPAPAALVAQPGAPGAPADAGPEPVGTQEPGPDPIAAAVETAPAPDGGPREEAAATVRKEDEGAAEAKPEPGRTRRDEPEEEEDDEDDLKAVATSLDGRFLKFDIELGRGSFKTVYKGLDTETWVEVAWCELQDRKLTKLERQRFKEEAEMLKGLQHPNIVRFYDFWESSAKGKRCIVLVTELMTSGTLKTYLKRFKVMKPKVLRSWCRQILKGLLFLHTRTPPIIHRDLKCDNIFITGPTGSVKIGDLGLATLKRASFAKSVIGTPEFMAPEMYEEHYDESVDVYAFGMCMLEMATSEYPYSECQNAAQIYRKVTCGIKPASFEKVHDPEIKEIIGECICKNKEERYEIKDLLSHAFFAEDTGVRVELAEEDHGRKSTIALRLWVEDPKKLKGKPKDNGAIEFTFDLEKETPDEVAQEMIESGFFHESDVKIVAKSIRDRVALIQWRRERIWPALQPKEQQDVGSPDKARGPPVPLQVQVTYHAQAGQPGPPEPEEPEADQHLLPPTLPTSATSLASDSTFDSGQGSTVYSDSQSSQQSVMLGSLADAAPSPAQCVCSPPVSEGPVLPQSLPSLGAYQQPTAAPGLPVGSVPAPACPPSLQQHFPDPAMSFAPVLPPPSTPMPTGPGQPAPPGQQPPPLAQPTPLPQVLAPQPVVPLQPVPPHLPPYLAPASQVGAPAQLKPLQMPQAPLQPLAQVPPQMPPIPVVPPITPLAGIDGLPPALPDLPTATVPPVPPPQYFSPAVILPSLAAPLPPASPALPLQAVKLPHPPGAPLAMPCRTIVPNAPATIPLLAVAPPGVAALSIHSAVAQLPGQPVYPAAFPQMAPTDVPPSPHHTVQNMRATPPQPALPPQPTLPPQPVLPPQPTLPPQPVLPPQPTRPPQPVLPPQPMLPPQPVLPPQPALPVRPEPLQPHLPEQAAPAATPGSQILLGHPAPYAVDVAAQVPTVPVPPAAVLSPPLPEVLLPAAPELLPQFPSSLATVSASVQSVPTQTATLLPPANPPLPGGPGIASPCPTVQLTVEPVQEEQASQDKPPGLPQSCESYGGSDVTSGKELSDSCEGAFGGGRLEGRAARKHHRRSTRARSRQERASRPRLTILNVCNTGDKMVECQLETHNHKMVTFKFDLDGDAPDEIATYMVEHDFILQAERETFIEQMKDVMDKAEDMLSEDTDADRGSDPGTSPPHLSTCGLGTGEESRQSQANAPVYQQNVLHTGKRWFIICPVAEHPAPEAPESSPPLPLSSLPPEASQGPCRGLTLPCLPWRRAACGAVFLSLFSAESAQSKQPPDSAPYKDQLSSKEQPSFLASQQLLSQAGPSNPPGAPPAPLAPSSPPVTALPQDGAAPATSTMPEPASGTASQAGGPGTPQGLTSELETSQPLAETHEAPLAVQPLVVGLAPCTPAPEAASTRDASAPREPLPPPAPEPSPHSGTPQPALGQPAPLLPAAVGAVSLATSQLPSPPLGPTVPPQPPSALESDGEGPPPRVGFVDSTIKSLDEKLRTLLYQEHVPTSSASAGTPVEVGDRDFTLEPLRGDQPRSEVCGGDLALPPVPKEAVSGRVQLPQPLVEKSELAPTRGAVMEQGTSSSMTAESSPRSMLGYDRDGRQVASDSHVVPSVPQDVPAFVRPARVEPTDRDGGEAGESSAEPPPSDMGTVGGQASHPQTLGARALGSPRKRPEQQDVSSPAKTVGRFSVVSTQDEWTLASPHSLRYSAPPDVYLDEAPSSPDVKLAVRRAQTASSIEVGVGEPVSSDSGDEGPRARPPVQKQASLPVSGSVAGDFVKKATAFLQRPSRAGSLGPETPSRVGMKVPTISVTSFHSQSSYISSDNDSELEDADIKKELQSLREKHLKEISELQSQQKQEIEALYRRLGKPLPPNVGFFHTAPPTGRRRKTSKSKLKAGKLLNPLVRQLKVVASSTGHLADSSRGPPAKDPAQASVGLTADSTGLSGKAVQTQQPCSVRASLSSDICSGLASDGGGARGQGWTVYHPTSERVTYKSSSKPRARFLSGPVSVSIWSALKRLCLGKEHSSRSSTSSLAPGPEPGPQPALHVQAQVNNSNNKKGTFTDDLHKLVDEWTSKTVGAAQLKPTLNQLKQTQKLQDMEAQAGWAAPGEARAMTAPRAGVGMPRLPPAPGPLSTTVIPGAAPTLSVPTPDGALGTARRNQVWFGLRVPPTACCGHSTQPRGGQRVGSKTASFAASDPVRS
Chain of Serine/threonine-protein kinase B-raf (Homo sapiens), P15056 [V600E] (P15056 whole entry V600E): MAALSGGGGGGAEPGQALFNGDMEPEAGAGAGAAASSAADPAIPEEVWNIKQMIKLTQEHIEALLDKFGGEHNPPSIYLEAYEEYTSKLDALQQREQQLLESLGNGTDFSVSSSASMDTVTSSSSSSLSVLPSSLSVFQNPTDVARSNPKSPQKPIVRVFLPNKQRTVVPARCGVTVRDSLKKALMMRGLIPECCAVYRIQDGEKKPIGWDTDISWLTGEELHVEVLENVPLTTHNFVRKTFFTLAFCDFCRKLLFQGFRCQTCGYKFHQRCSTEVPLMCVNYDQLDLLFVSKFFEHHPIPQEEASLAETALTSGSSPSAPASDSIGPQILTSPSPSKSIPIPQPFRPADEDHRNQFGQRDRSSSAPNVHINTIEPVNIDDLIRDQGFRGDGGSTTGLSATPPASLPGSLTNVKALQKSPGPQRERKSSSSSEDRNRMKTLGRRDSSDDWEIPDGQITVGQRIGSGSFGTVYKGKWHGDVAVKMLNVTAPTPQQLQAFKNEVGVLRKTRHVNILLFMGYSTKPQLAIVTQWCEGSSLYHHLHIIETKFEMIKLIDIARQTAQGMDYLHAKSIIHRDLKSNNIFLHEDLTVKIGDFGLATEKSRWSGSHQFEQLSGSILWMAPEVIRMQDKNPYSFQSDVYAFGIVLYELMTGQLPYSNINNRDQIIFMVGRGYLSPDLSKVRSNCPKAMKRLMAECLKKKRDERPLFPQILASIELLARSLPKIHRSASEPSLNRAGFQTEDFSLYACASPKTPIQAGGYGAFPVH
Chain of Cyclin-dependent kinase 9 (Homo sapiens) (P50750 whole entry): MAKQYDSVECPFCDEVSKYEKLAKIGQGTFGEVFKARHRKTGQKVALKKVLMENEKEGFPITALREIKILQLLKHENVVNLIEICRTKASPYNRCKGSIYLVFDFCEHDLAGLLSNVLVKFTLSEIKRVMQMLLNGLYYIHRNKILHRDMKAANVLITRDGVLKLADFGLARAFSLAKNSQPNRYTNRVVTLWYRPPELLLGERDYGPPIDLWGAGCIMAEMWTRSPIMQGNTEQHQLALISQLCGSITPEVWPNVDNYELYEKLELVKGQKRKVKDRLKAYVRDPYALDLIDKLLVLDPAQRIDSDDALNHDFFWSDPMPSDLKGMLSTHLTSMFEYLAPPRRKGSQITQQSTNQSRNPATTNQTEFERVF

Work on CCOCCn1cc(C(=O)Nc2ccc(-n3nc(-c4cccnc4)cc3C(F)(F)F)cn2)ccc1=O [BI 1935] yielded a residual activity [1] of 92%, a residual activity [2] of 96% and a residual activity [3] of 97%. It also gave a residual activity [4] of 112%, a residual activity [5] of 100% and a residual activity [6] of 100%. For the same compound, the residual activity [7] was 100%, the residual activity [8] was 70% and the residual activity [9] was 97%. The residual activity [10] was 79%, the residual activity [11] was 100% and the residual activity [12] was 92%. The residual activity [13] was 97%, the residual activity [14] was 76% and the residual activity [15] was 100%. For the same compound, the residual activity [16] was 100%, the residual activity [17] was 100% and the residual activity [18] was 100%. For the same compound, the residual activity [19] was 69%, the residual activity [20] was 91% and the residual activity [21] was 39%. The residual activity [22] was 91%, the residual activity [23] was 84% and the residual activity [24] was 100%. It also gave a residual activity [25] of 74%, a residual activity [26] of 93% and a residual activity [27] of 100%. The residual activity [28] was 100%, the residual activity [29] was 80% and the residual activity [30] was 100%. For the same compound, the residual activity [31] was 86%, the residual activity [32] was 100% and the residual activity [33] was 91%. The residual activity [34] was 74%, the residual activity [35] was 92% and the residual activity [36] was 87%. It also gave a residual activity [37] of 100%, a residual activity [38] of 100% and a residual activity [39] of 100%. The residual activity [40] was 64%, the residual activity [41] was 100% and the inhibition [42] was -4.26%. It also gave an inhibition [43] of 82.1%, an inhibition [44] of 4.9% and an inhibition [45] of 10.2%.

— ChEMBL document CHEMBL4507283, “Data for DCP probe BI-1935” (2021)
